Results published in patent publication US12091399B2, “Phenyltetrazole derivatives as plasma kallikrein inhibitors” (Boehringer Ingelheim International GmbH, priority 2018, dated 2024).

Molecular target: Human PKK (Homo sapiens (Human), UniProt P03952)
Experiment: Inhibition of PKK using an endpoint assay (human PKK)
Format: biochemical
Settings: 1 h at rt, 0.10 μM H-Pro-Phe-Arg-AMC
Protocol: The ability of compounds of formula (I) to inhibit plasma kallikrein (PKK), Factor XIIa (FXIIa), Factor XIa (FXIa), Factor Xa (FXa), Factor IIa (alpha-thrombin; FIIa), plasmin, trypsin, tissue kallikrein 1 (TK1), Factor Vila (FVIIa), or FVIIa complexed with Tissue Factor, phospholipids and CaCl2) (FVIIa/TF/PL/CaCl2) was determined using the following biochemical assays in assay buffer (100 mM Tris, 150 mM NaCL, adjusted to a pH of 7.8 with HCl, and containing 0.1% (w/v) BSA and 0.05% (v/v) Tween20) in the presence of 1% (v/v) DMSO:
Subsequently, PPACK II (Calbiochem) was added as a stop solution to achieve a final concentration of 1 μM and fluorescence was measured using an Envision Reader (PerkinElmer) with the wavelength excitation setting of 355 nm and the wavelength emission setting of 460 nm. The number of the compound corresponds to the number of the Example in the experimental section.

Chain of Human PKK (P03952 391-638): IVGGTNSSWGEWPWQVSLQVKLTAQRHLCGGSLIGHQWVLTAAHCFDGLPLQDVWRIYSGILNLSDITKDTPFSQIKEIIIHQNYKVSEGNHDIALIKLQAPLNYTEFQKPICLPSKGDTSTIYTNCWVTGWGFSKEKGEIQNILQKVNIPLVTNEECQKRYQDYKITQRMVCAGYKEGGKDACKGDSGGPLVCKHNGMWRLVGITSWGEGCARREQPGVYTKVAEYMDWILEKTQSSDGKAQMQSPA
Chain of Human PKK (P03952 20-390 partner): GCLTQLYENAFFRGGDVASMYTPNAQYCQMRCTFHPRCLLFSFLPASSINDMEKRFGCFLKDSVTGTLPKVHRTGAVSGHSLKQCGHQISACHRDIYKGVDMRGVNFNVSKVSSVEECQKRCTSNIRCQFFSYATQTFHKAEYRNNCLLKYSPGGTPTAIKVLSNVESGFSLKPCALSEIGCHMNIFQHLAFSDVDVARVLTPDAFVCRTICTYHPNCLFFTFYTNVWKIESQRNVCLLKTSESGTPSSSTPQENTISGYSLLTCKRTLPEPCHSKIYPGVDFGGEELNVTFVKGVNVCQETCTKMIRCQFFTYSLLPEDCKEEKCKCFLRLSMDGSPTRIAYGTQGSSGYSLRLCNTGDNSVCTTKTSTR

Row | IC50 | SMILES
1 | 2 nM | Cc1nc(N2CC3CC3C2)ncc1Cn1cc(C(=O)NCc2cc(Cl)ccc2-n2cnnn2)c(C)n1 (stereo not drawn) [Example 31]
2 | 0.2 nM | Cc1nc(N2CC3(CC3)C2)ccc1Cn1cc(C(=O)NCc2c(-n3cnnn3)ccc(Cl)c2F)cn1 [Example 53]
3 | 0.4 nM | Cc1nc(N2CC3CC3C2)ccc1Cn1cc(C(=O)NCc2c(-n3cnnn3)ccc(Cl)c2F)c(C)n1 (stereo not drawn) [Example 20]
4 | 122 nM | Cc1nc(N2CC3(CCCN3)C2)ccc1Cn1cc(C(=O)NCc2cc(Cl)ccc2-n2cnnn2)cn1 [Example 91, N-{[5-chloro-2-(1H-1,2,3,4-tetrazol-1-yl)phenyl]methyl}-1-[(6-{2,5-diazaspiro[3.4]octan-2-yl}-2-methylpyridin-3-yl)methyl]-1H-pyrazole-4-carboxamide]
5 | 845 nM | Cc1nc(N2CC3OCC(N)C3C2)ccc1Cn1cc(C(=O)NCc2cc(Cl)ccc2-n2cnnn2)cn1 (stereo not drawn) [Example 70, 1-[(6-{3-amino-hexahydro-2H-furo[2,3-c]pyrrol-5-yl}-2-methylpyridin-3-yl)methyl]-N-{[5-chloro-2-(1H-1,2,3,4-tetrazol-1-yl)phenyl]methyl}-1H-pyrazole-4-carboxamide]
6 | 0.6 nM | COCc1nn(Cc2ccc(N3CC4C(C3)C4(F)F)nc2C)cc1C(=O)NCc1c(-n2cnnn2)ccc(Cl)c1F (stereo not drawn) [Example 11]
7 | 9 nM | Cc1nc(N2CCC3(C2)CC3(F)F)ccc1Cn1cc(C(=O)NCc2cc(Cl)ccc2-n2cnnn2)cn1 (stereo not drawn) [Example 66, N-{[5-chloro-2-(1H-1,2,3,4-tetrazol-1-yl)phenyl]methyl}-1-[(6-{1,1-difluoro-5-azaspiro[2.4]heptan-5-yl}-2-methylpyridin-3-yl)methyl]-1H-pyrazole-4-carboxamide]
8 | 0.7 nM | Cc1nc(N2CC3(CC3)C2)ncc1Cn1cc(C(=O)NCc2c(-n3cnnn3)ccc(Cl)c2F)c(C)n1 [Example 38]
9 | 1 nM | Cc1nc(N2CC3C(C2)C3(F)F)ncc1Cn1cc(C(=O)NCc2cc(Cl)ccc2-n2cnnn2)c(C)n1 (stereo not drawn) [Example 34]
10 | 14 nM | Cc1nc(N2CC3(CC3)C2)ccc1Cn1cc(C(=O)NCc2c(-n3cnnn3)ccc(Cl)c2F)c(C)n1 [Example 28]
11 | 0.5 nM | Cc1nc(N2CC3CC3C2)ccc1Cn1cc(C(=O)NCc2c(-n3cnnn3)ccc(Cl)c2F)c(C(F)F)n1 (stereo not drawn) [Example 10]
12 | 127 nM | Cc1nc(N2C[C@@H]3C[C@]3(N)C2)ccc1Cn1cc(C(=O)NCc2cc(Cl)ccc2-n2cnnn2)cn1 [Example 88, 1-({6-[(1R,5S)-1-amino-3-azabicyclo[3.1.0]hexan-3-yl]-2-methylpyridin-3-yl}methyl)-N-{[5-chloro-2-(1H-1,2,3,4-tetrazol-1-yl)phenyl]methyl}-1H-pyrazole-4-carboxamide]
13 | 2 nM | Cc1nc(N2CC3(CC3)C2)ncc1Cn1cc(C(=O)NCc2cc(Cl)ccc2-n2cnnn2)c(C)n1 [Example 37]
14 | 286 nM | Cc1nc(N2CCC3(CNC3)C2)ccc1Cn1cc(C(=O)NCc2cc(Cl)ccc2-n2cnnn2)cn1 [Example 93, N-{[5-chloro-2-(1H-1,2,3,4-tetrazol-1-yl)phenyl]methyl}-1-[(6-{2,6-diazaspiro[3.4]octan-6-yl}-2-methylpyridin-3-yl)methyl]-1H-pyrazole-4-carboxamide]
15 | 49 nM | Cc1nc(N2CC3CC2CO3)ccc1Cn1cc(C(=O)NCc2cc(Cl)ccc2-n2cnnn2)cn1 (stereo not drawn) [Example 77, N-{[5-chloro-2-(1H-1,2,3,4-tetrazol-1-yl)phenyl]methyl}-1-[(2-methyl-6-{2-oxa-5-azabicyclo[2.2.1]heptan-5-yl}pyridin-3-yl)methyl]-1H-pyrazole-4-carboxamide]
16 | 12 nM | Cc1nc(N2CCC3(COC3)C2)ccc1Cn1cc(C(=O)NCc2cc(Cl)ccc2-n2cnnn2)cn1 [Example 61, N-{[5-chloro-2-(1H-1,2,3,4-tetrazol-1-yl)phenyl]methyl}-1-[(2-methyl-6-{2-oxa-6-azaspiro[3.4]octan-6-yl}pyridin-3-yl)methyl]-1H-pyrazole-4-carboxamide]
17 | 8 nM | Cc1nc(N2CCC3(CCOC3)C2)ccc1Cn1cc(C(=O)NCc2cc(Cl)ccc2-n2cnnn2)cn1 (stereo not drawn) [Example 71, N-{[5-chloro-2-(1H-1,2,3,4-tetrazol-1-yl)phenyl]methyl}-1-[(2-methyl-6-{2-oxa-7-azaspiro[4.4]nonan-7-yl}pyridin-3-yl)methyl]-1H-pyrazole-4-carboxamide]
18 | 0.4 nM | Cc1nc(N2CC3C(C2)C3(F)F)ccc1Cn1cc(C(=O)NCc2c(-n3cnnn3)ccc(Cl)c2F)c(C)n1 (stereo not drawn) [Example 17]

Row | IC50 | SMILES
19 | 1 nM | COc1nn(Cc2ccc(N3CC4CC4C3)nc2C)cc1C(=O)NCc1c(-n2cnnn2)ccc(Cl)c1F (stereo not drawn) [Example 22]
20 | 225 nM | Cc1nc(N2CC3(CC(O)C3)C2)ccc1Cn1cc(C(=O)NCc2cc(Cl)ccc2-n2cnnn2)cn1 [Example 64, N-{[5-chloro-2-(1H-1,2,3,4-tetrazol-1-yl)phenyl]methyl}-1-[(6-{6-hydroxy-2-azaspiro[3.3]heptan-2-yl}-2-methylpyridin-3-yl)methyl]-1H-pyrazole-4-carboxamide]
21 | 2 nM | O=C(NCc1cc(Cl)ccc1-n1cnnn1)c1cnn(Cc2cnc(N3CC4C(C3)C4(F)F)c(Br)c2)c1 (stereo not drawn) [Example 51]
22 | 0.9 nM | COCc1nn(Cc2ccc(N3CC4C(C3)C4(F)F)nc2C)cc1C(=O)NCc1cc(Cl)ccc1-n1cnnn1 (stereo not drawn) [Example 12]
23 | 232 nM | Cc1nc(N2CC3(CNC(=O)C3)C2)ccc1Cn1cc(C(=O)NCc2cc(Cl)ccc2-n2cnnn2)cn1 [Example 74, N-{[5-chloro-2-(1H-1,2,3,4-tetrazol-1-yl)phenyl]methyl}-1-[(2-methyl-6-{7-oxo-2,6-diazaspiro[3.4]octan-2-yl}pyridin-3-yl)methyl]-1H-pyrazole-4-carboxamide]
24 | 1 nM | COCc1nn(Cc2cnc(N3CC4C(C3)C4(F)F)nc2C)cc1C(=O)NCc1c(-n2cnnn2)ccc(Cl)c1F (stereo not drawn) [Example 32]
25 | 7 nM | Cc1nc(N2CC3COCC(C3)C2)ccc1Cn1cc(C(=O)NCc2cc(Cl)ccc2-n2cnnn2)cn1 [Example 75, N-{[5-chloro-2-(1H-1,2,3,4-tetrazol-1-yl)phenyl]methyl}-1-[(2-methyl-6-{3-oxa-7-azabicyclo[3.3.1]nonan-7-yl}pyridin-3-yl)methyl]-1H-pyrazole-4-carboxamide]
26 | 0.8 nM | Cc1nc(N2CC3C(C2)C3(F)F)ncc1Cn1cc(C(=O)NCc2c(-n3cnnn3)ccc(Cl)c2F)c(C)n1 (stereo not drawn) [Example 33]
27 | 1 nM | COCc1nn(Cc2ccc(N3CC4(CC4)C3)nc2C)cc1C(=O)NCc1cc(Cl)ccc1-n1cnnn1 [Example 25]
28 | 5 nM | COCc1nn(Cc2cnc(N3CC4CC4C3)nc2C)cc1C(=O)NCc1cc(Cl)ccc1-n1cnnn1 (stereo not drawn) [Example 36]
29 | 61 nM | Cc1nc(N2CC[C@@]3(N)C[C@H]3C2)ccc1Cn1cc(C(=O)NCc2cc(Cl)ccc2-n2cnnn2)cn1 [Example 89, 1-({6-[(1S,6S)-6-amino-3-azabicyclo[4.1.0]heptan-3-yl]-2-methylpyridin-3-yl}methyl)-N-{[5-chloro-2-(1H-1,2,3,4-tetrazol-1-yl)phenyl]methyl}-1H-pyrazole-4-carboxamide]
30 | 155 nM | Cc1nc(N2C[C@@H]3CCN[C@@H]3C2)ccc1Cn1cc(C(=O)NCc2cc(Cl)ccc2-n2cnnn2)cn1 [Example 92, 1-({6-[(3aS,6aS)-octahydropyrrolo[3,4-b]pyrrol-5-yl]-2-methylpyridin-3-yl}methyl)-N-{[5-chloro-2-(1H-1,2,3,4-tetrazol-1-yl)phenyl]methyl}-1H-pyrazole-4-carboxamide]
31 | 0.6 nM | COCc1nn(Cc2ccc(N3CC4CC4C3)nc2C)cc1C(=O)NCc1c(-n2cnnn2)ccc(Cl)c1F (stereo not drawn) [Example 14]
32 | 1 nM | Cc1nc(N2CC3C(C2)C3(F)F)ccc1Cn1cc(C(=O)NCc2cc(Cl)ccc2-n2cnnn2)c(C)n1 (stereo not drawn) [Example 18]
33 | 0.7 nM | Cc1nc(N2CC3CC3C2)ccc1Cn1cc(C(=O)NCc2cc(Cl)ccc2-n2cnnn2)c(C)n1 (stereo not drawn) [Example 19]
34 | 82 nM | Cc1cc(Cl)cc(CNC(=O)c2cnn(Cc3ccc(N4CC5CC5C4)nc3C)c2)c1-n1cnnn1 (stereo not drawn) [Example 4]
35 | 1 nM | COCc1nn(Cc2cnc(N3CC4CC4C3)nc2C)cc1C(=O)NCc1c(-n2cnnn2)ccc(Cl)c1F (stereo not drawn) [Example 35]
36 | 3 nM | Cc1nc(N2CC3(CC3)C2)ncc1Cn1cc(C(=O)NCc2cc(Cl)ccc2-n2cnnn2)cn1 [Example 39]

Row | SMILES | IC50
37 | Cc1nc(N2CC3C(C2)C3(F)F)ncc1Cn1cc(C(=O)NCc2cc(Cl)ccc2-n2cnnn2)c2cncnc21 (stereo not drawn) [Example 24] | 2 nM
38 | Cc1nc(N2CC3CC3C2)ccc1Cn1cc(C(=O)NCc2c(-n3cnnn3)ccc(Cl)c2F)c2cncnc21 (stereo not drawn) [Example 16] | 0.6 nM
39 | Cc1nc(N2CC3CCC(C2)N3)ccc1Cn1cc(C(=O)NCc2cc(Cl)ccc2-n2cnnn2)cn1 [Example 90, N-{[5-chloro-2-(1H-1,2,3,4-tetrazol-1-yl)phenyl]methyl}-1-[(6-{3,8-diazabicyclo[3.2.1]octan-3-yl}-2-methylpyridin-3-yl)methyl]-1H-pyrazole-4-carboxamide] | 119 nM
40 | Cc1nc(N2CC3(CC3)C2)ncc1Cn1cc(C(=O)NCc2cc(Cl)ccc2-n2cnnn2)c2cncnc21 [Example 57] | 5 nM
41 | Cc1nc(N2CC3CC3C2)ncc1Cn1cc(C(=O)NCc2cc(Cl)ccc2-n2cnnn2)c2cncnc21 (stereo not drawn) [Example 27] | 3 nM
42 | Cc1nc(N2CC3CC(C2)C3O)ccc1Cn1cc(C(=O)NCc2cc(Cl)ccc2-n2cnnn2)cn1 (stereo not drawn) [Example 68, N-{[5-chloro-2-(1H-1,2,3,4-tetrazol-1-yl)phenyl]methyl}-1-[(6-{6-hydroxy-3-azabicyclo[3.1.1]heptan-3-yl}-2-methylpyridin-3-yl)methyl]-1H-pyrazole-4-carboxamide] | 4 nM
